Experimental data as given in paper PMC9787607, “A Novel Protocol for the Synthesis of 1,2,4-Oxadiazoles Active against Trypanosomatids and Drug-Resistant Leukemia Cell Lines” (Tropical Medicine and Infectious Disease, 2022).
Where two headings read alike, the source gives them in different places.

Columns and labels:
[1] = test system: L. amazonensis promastigotes; assay: Anti-L. amazonensis promastigote assessment (MTT); type: cell-based; conditions: Leishmania amazonensis, 48 h, read-out: EC50 L. amazonensis promastigotes
Description: Promastigotes of L. amazonensis (MHOM/BR/75/Josefa) were cultured in Schneider’s insect medium (SIM) with 10% FBS. Parasites were harvested at the stationary growth phase for assessment against promastigotes and 24 h after cultures reached the stationary growth phase for infection assays. […]. Complete SIM media and amphotericin B (AmB) at 10 µM were used as negative and positive controls, respectively. A vehicle control containing SIM with 10% SFB media and 0.3% DMSO was maintained for comparison. The final volume of the experiment was 100 µL. After incubation for 48 h at 27 °C, MTT salt solution in PBS was added (3.0 mM, 20 µL per well). After incubation for 2 h at 27 °C, the MTT formazan was dissolved by adding 120 µL of solubilizing buffer (50% isopropanol, 40% acetate buffer pH 5.4, 10% Triton-X). Absorbance was measured using a microplate reader at 570 nm.
(§1) The percent cell or parasite viability was calculated by the formula: % viability = [(A − P)/(N − P)] × 100, A = absorbance of specific well, P = positive control, N = negative control. Determination of half-maximal effective concentrations (EC50), calculated by logarithmic regression, and significance analysis (p < 0.05), using ANOVA and Dunnett’s test, by GraphPad Prism 7.0 software. The results are expressed as the mean and standard deviation (SD) of three independent experiments.

[2] = test system: L. amazonensis amastigotes; assay: Anti-L. amazonensis amastigote assessment in RAW 264.7 macrophages; type: cell-based, Leishmania amazonensis
Description: RAW 264.7 cells were seeded in a 96-well microplate (2.0 × 10^4 cells per well) in complete DMEM with 5% FBS and incubated for 3 h at 37 °C in 5% CO2 for cell adhesion. The medium was renewed, and L. amazonensis promastigotes (3.0 × 10^5 parasites per well) were added. After 24 h of incubation at 37 °C in 5% CO2, the cell monolayer was washed with PBS to remove noninternalized parasites, the medium was renewed, and compounds were added at a range of concentrations in triplicate (100–1 μM). Untreated infected cells and noninfected RAW 264.7 cells were used as negative and positive controls, respectively. Vehicle control containing DMEM and 0.3% DMSO was maintained for comparison. After incubation for 48 h at 37 °C in 5% CO2, the medium was removed, and a solution containing 0.02% SDS in PBS (20 µL per well) was added. Macrophage lysis and amastigote release were accompanied under an inverted microscope for 10–15 min. SIM with 12.5% SFB (80 µL per well) was added, parasites were allowed to differentiate into promastigotes for 48 h at 27 °C, and an MTT salt solution in PBS was added (3.0 mM, 20 µL per well). After incubation for 2 h at 27 °C, the MTT formazan was dissolved by adding 120 µL of solubilizing buffer (50% isopropanol, 40% acetate buffer pH 5.4, 10% Triton X). Absorbance was measured using a microplate reader at 570 nm.
as §1

[3] = test system: RAW 264.7 cells; assay: Cytotoxicity to RAW 264.7 cells (MTT); type: cell-based, murine; conditions: Mus musculus, RAW264.7, 48 h, read-out: EC50 RAW
Description: (§2) LLC-MK2 kidney fibroblasts (ATCC) and RAW 264.7 macrophages (ATCC) were cultivated in culture flasks in complete DMEM with 5% FBS at 37 °C in 5% CO2. The LLC-MK2 cell monolayer was detached by treatment with trypsin-EDTA 0.05% for 5 min at 37 °C. The RAW cell monolayer was detached mechanically. In both cases, the cells were centrifuged at 480× g for 6 min and resuspended in complete DMEM with 5% FBS, and the cell density was determined by counting with trypan-blue dye exclusion on Neubauer chambers before use.
RAW 264.7 cells were seeded in a 96-well microplate (2.0 × 10^4 cells per well) in complete DMEM with 5% FBS (120 µL per well). After incubation for 24 h at 37 °C in 5% CO2, the medium was renewed, and compounds were added at a range of concentrations in triplicate (100–1 μM). Untreated cells and cells treated with DMEM and 10% DMSO were used as negative and positive controls, respectively. Vehicle control containing DMEM and 0.3% DMSO was maintained for comparison. After incubation for 48 h at 37 °C in 5% CO2, the medium was renewed, and an MTT solution in PBS was added (3.0 mM, 20 µL per well). After incubation for 2 h at 37 °C in 5% CO2, the supernatant was removed, and MTT formazan was dissolved in DMSO (150 µL per well). Absorbance was measured using a microplate reader at 570 nm.
as §1

[4] = test system: LLC-MK2 cells; assay: Cytotoxicity to LLC-MK2 host cells (MTT); type: cell-based; conditions: Macaca mulatta, LLC-MK2; 120 h, MTT
Description: as §2
(§3) LLC-MK2 cells were seeded in a 96-well microplate (1.0 × 10^4 cells per well) in complete DMEM with 5% FBS (120 µL per well). After incubation for 24 h at 37 °C in 5% CO2, the medium was renewed, and compounds were added at a range of concentrations in triplicate (50 μM or 100–1 μM). Untreated cells and cells treated with DMEM and 10% DMSO were used as negative and positive controls, respectively. Vehicle control containing DMEM and 0.3% DMSO was maintained for comparison. After incubation for 120 h at 37 °C in 5% CO2, the medium was renewed, and MTT salt solution in PBS was added (3.0 mM, 20 µL per well). After incubation for 2 h at 37 °C in 5% CO2, the supernatant was removed, and MTT formazan was dissolved in DMSO (150 µL per well). Absorbance was measured using a microplate reader at 570 nm.
as §1

[5] = test system: T. cruzi amastigotes (Tulahuen C2C4 LacZ strain); assay: microbe, parasite or virus in culture; type: cell-based, Trypanosoma cruzi; conditions: Trypanosoma cruzi, TULAHUEN; for viability at 50 µM: LLC-MK2, 120 h, screening at 50 μM, 120 h, compared with untreated controls
Description: To a monolayer of 1.0 × 10^7 LLC-MK2 cells in a 150 cm^2 culture flask were added 5.0 × 10^7 trypomastigotes of T. cruzi expressing the […] (Tulahuen C2C4 LacZ) in complete DMEM with 2.5% FBS. The infection was allowed to occur for 24 h, the supernatant was removed, and the cell monolayer was washed with PBS. Complete DMEM with 2.5% FBS was renewed every 2 days up to the sixth day after infection. Trypomastigote forms were collected daily from the supernatant between days 7 and 12 after infection, enriched by differential centrifugation (1500× g for 10 min, 5580× g for 20 min), and resuspended in complete DMEM with 5% FBS. Parasite density was determined by counting the mobile trypomastigotes on Neubauer chambers before use.
. The medium was renewed, and trypomastigote forms of T. cruzi (Tulahuen C2C4 LacZ strain, 2.0 × 10^5 parasites per well) were added. After incubation for 24 h at 37 °C in 5% CO2, the cell monolayer was washed with PBS to remove noninternalized parasites. DMEM without phenol red and 5% FBS was added, and infected cells were treated with compounds at a range of concentrations in triplicate (50 μM or 100–1 μM). Untreated infected cells and noninfected LLC-MK2 cells were used as negative and positive controls, respectively. Vehicle control containing DMEM without phenol red and 0.3% DMSO was maintained for comparison. After incubation for 120 h at 37 °C in 5% CO2, a solution containing […] and 0.8% IGEPAL CA-630 in PBS (30 µL per well), followed by further incubation for 2 h at 37 °C in 5% CO2. Absorbance was measured using a microplate reader at 570 nm.
as §1

[6] = test system: T. cruzi epimastigotes; design: method as in PMID 19517898; conditions: T. cruzi epimastigotes at 50 μM; cited from earlier work
[7] = Cytotoxicity to BALB/c mouse total splenocytes (MTT); type: cell-based; conditions: male, total splenocytes (primary), 100 μM, 48 h, compared to the untreated control (Table S1)
Description: BALB/c mouse total splenocytes were harvested from male mice between 6–8 weeks old. After euthanasia, the spleens were removed and macerated in DMEM. After centrifugation, the cells were treated with hemolytic ACK buffer at 37 °C for 5 min. […] After incubation for 48 h at 37 °C in 5% CO2, cell viability was determined after the addition of 20 µL per well of a solution containing MTT salt (3.0 mM) and phenazine metasulphate (0.72 mM). After further incubation for 1 h at 37 °C, the medium was removed, and DMSO was added to dissolve the dark-blue formazan crystals formed by MTT reduction. Absorbance was measured on a microplate reader at 570 nm.
as §1

[8] = test system: FEPS (K562/DNR); assay: MTT cytotoxicity to MDR CML cell line FEPS; type: cell-based, human; conditions: for RR (relative resistance) FEPS: (EC50 MDR cells)/(EC50 parental cells), FEPS/K562; for EC50: Homo sapiens, K562, 72 h, MTT
Description: (§4) The CML cell lines K562, Lucena-1 (K562/VCR), and FEPS (K562/DNR) were cultured in RPMI-1640 medium supplemented with 25 mM HEPES and 2 g L^−1 sodium bicarbonate adjusted to pH 7.4 with NaOH, 100 U penicillin and […] streptomycin. All media were supplemented with 10% FBS. Dr. Vivian M. Rumjanek (Instituto de Bioquímica Médica, UFRJ, Brazil) kindly donated Lucena-1 and FEPS cells. Briefly, K562 cells were exposed to increasing concentrations of the chemotherapeutic drugs vincristine sulfate (VCR) and daunorubicin hydrochloride (DNR) (both from Sigma-Aldrich), as described previously. Lucena-1 (K562/VCR) and FEPS (K562/DNR) cells were cultured in the presence of either 60 nM VCR or 500 nM DNR to maintain the MDR phenotypes. For subcultures, cells were harvested every three days followed by washing with cold FBS, and a final concentration of 2 × 10^4 cells mL^−1 was maintained at 37 °C in 5% CO2.
(§5) Cell viability was determined by the 3-(4,5-dimethylthiazol-2-yl)-2,5-diphenyltetrazolium (MTT) colorimetric assay. CML cells (2 × 10^4 cells·mL^−1) were incubated for 72 h at 37 °C, followed by treatment with compounds at a range of concentrations (100–1 μM). Negative controls were prepared with 0.5% DMSO. An MTT salt solution was added to each well to a final concentration of 0.5 g·L^−1, and plates were incubated at 37 °C in 5% CO2 for 3 h. After centrifugation, 200 μL DMSO was added to dissolve the dark-blue formazan crystals formed by MTT reduction. Absorbance was measured on a microplate reader at 570 nm, which is directly proportional to formazan contents and indicative of living cells.
as §1

[9] = test system: K562; assay: MTT cytotoxicity to CML cell line K562; type: cell-based; conditions: Homo sapiens, 72 h
Description: as §4, §5, §1

[10] = test system: Lucena-1 (K562/VCR); assay: cells; type: cell-based, human; conditions: for RR (relative resistance) Lucena-1: (EC50 MDR cells)/(EC50 parental cells), Lucena-1/K562; for EC50: Homo sapiens, Lucena 1, 72 h, read-out: EC50 Lucena-1
Description: as §4, §5, §1

[11] = Cytotoxicity to LLC-MK2 host cells (MTT); type: cell-based; conditions: rhesus monkey, LLC-MK2 cells (kidney fibroblasts); screening at 50 μM, 120 h
Description: as §2, §3, §1

Compound | EC50 [1] | EC50 ([2]; Leishmania amazonensis, RAW264.7, 48 h, read-out: EC50 L. amazonensis intracellular amastigotes) | S.I. (selectivity index) ([2]; host cell/parasite EC50 ratio, RAW/L. amazonensis) | EC50 [3] | EC50 [4] | viability at 50 µM [5] | EC50 ([5]; in LLC-MK2, 120 h, read-out: EC50 T. cruzi intracellular amastigotes) | apoptosis [6] | necrosis [6] | parasite death [6] | viability at 48 h, 100 µM [7] | RR (relative resistance) FEPS [8] | EC50 [8] | EC50 ([1]; MTT) | EC50 [9] | RR (relative resistance) Lucena-1 [10] | EC50 [10] | viability at 120 h, 50 µM [11] | melting point
C[C@@H]1[C@H](O)[C@@H](C)/C=C/C=C/C=C/C=C/C=C/C=C/C=C/[C@H](O[C@@H]2O[C@H](C)[C@@H](O)[C@H](N)[C@@H]2O)C[C@@H]2O[C@](O)(C[C@@H](O)C[C@@H](O)[C@H](O)CC[C@@H](O)C[C@@H](O)CC(=O)O[C@H]1C)C[C@H](O)[C@H]2C(=O)O [Amphotericin B, reference compound] | 0.094 ± 0.001 µM | 0.151 ± 0.022 µM | 65.2 | 9.8 ± 3.3 µM | – | – | – | – | – | – | – | – | – | – | – | – | – | – | –
O=C(Cn1ccnc1[N+](=O)[O-])NCc1ccccc1 [Benznidazole, reference compound] | – | – | – | – | > 100 µM | 23.2 ± 1.4% | 1.5 ± 0.2 µM | – | – | – | – | – | – | – | – | – | – | – | –
COc1ccc(OC)c(/C=C/C(=O)Nc2nc3ccccc3s2)c1 [Compound 1] | – | – | – | – | – | – | – | 40.2% | 17.9% | 58.1% | – | – | – | – | – | – | – | – | –
COc1cc(-c2noc(/C=C/c3ccccc3)n2)cc(OC)c1OC [Compound 21, (E)-3-(3,4,5-trimethoxyphenyl)-5-[2-phenylvinyl]-1,2,4-oxadiazole] | – | – | – | – | – | 77.3 ± 2% | – | – | – | – | 76.8 ± 6.6% | <0.28 | 27.7 ± 5.2 µM | > 100 µM | > 100 µM | <0.69 | 68.6 ± 10.1 µM | 88.5 ± 4.7% | 138 to 140 °C
COc1cccc(/C=C/c2nc(-c3cc(OC)c(OC)c(OC)c3)no2)c1 [Compound 22, (E)-3-(3,4,5-trimethoxyphenyl)-5-[2-(3-methoxyphenyl)-vinyl]-1,2,4-oxadiazole] | – | – | – | – | – | 66.1 ± 2.3% | – | – | – | – | 63.5 ± 2.4% | <0.36 | 36.1 ± 12.4 µM | > 100 µM | > 100 µM | <0.73 | 72.9 ± 3 µM | 87.1 ± 1.7% | 117 to 119 °C
COc1cc(-c2noc(/C=C/c3ccco3)n2)cc(OC)c1OC [Compound 25, (E)-3-(3,4,5-trimethoxyphenyl)-5-[2-(fur-2-yl)vinyl]-1,2,4-oxadiazole] | – | – | – | – | – | 79.5 ± 5.5% | – | – | – | – | 63.7 ± 4.7% | 0.74 | 53.7 ± 3.6 µM | > 100 µM | 72.8 ± 9.1 µM | 1.05 | 76.6 ± 6.1 µM | 73.5 ± 1.7% | 144 to 146 °C
